Measured values: patent US20210078972A1, “QUINOLINE OR QUINAZOLINE COMPOUND AND APPLICATION THEREOF” (HAIHE BIOPHARMA CO., LTD., priority 2018, published 2021)

Assays:
[1] = test system: Mixed primary male beagle canine hepatocytes; experiment: Metabolism in canine hepatocytes, UPLC-UV/Q-TOF MS; type: in vitro ADME; details: 180 min
Description: In this example, a UPLC-UV/Q-TOF MS method was used to evaluate the differences in the metabolic processes of TL134 in hepatocytes of five species of human, monkey, canine, rat, and mouse.
The total volume of each incubation sample was 100 μL, the medium was WME medium (pH 7.4), and the incubation sample included hepatocytes with a cell density of 1.0×10^6 cells/mL and TL134 with a final concentration of 3.0 μM; the negative control sample was incubated with thermal-inactivated mixed hepatocytes (without cell counting) of five species of animals and TL134, and the buffer control sample was incubated with WME medium and TL134. All samples were incubated at 37° C. for 180 min, and then 100 μL of ice-cold acetonitrile was added to stop the reaction. The samples were stored at −70° C. for ready to be tested, and all incubation samples were double samples.
Triple TOF 5600′ quadrupole-time-of-flight tandem mass spectrometer (Q-TOF MS), equipped with electrospray ionization source (ESI source) and CDS automatic calibration system, AB SCIEX Company, USA; Acquity UPLC liquid chromatography system, including binary infusion pump, autosampler, column oven, degasser and TUV ultraviolet detector, Waters Company, USA. […]

Flt3 kinase = target: T1, Flt3 kinase (Homo sapiens, UniProt P36888); experiment: Flt3 kinase inhibition, Z'-LYTE FRET; type: biochemical; details: ATP 500 μM
T1 construct: purchased life PV6253
T1 sequence (P36888 27-993): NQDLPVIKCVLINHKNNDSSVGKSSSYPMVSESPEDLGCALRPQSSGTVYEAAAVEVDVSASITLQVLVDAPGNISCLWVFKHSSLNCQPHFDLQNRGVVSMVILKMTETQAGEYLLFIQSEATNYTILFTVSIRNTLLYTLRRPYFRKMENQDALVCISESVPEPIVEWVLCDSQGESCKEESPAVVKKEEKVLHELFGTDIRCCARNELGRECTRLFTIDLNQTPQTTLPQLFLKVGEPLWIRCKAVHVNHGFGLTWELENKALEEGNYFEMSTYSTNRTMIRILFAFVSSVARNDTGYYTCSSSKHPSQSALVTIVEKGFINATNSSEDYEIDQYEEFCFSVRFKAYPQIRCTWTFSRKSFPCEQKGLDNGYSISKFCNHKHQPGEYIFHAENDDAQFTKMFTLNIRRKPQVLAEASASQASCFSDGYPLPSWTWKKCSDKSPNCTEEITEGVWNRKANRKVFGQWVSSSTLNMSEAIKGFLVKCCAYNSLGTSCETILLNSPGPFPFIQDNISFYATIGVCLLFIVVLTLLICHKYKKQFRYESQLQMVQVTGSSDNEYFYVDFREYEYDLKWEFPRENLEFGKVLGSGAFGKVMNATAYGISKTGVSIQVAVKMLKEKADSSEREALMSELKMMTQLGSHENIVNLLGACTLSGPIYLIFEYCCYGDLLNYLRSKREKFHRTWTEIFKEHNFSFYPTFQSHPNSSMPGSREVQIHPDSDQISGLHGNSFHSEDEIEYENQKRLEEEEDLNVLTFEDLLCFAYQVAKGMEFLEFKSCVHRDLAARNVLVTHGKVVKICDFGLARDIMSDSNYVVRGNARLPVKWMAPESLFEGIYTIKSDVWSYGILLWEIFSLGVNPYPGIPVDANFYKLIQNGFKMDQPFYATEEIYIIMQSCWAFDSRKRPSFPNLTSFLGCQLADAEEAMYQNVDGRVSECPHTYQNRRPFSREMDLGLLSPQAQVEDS
From the text: Detection of the activity of kinase: the inhibitory activities of the compounds against Flt3 kinase (life, PV6253) were detected through a second-order reaction by the Z′-LYTE™ technology (detected by fluorescence, enzyme-coupled form, based on the difference in a sensitivity of phosphorylated and non-phosphorylated polypeptides to proteolytic cleavage), based on the principle of fluorescence resonance energy transfer (FRET), using Z′-LYTE™ FRET peptide substrate (Z′-LYTE™ Tyrosine 2 Peptide Substrate, Invitrogen, PV3191).
Enzymatic reaction: To a 384-well plate were added 5 μL of enzyme-substrate system (50 mM HEPES, pH 7.5, 0.01% BRU-35, 10 mM MgC2, 1 mM EGTA), 2.5 μL of a compound (concentration gradient) and 2.5 μL of a mixed solution of ATP (a final concentration of a substrate Z′-LYTE™ Tyrosine 2 Peptide Substrate was 2 μM, and a final concentration of ATP was 500 μM), and then the plate was incubated at 37° C. in the dark for 1 h.
Detecting reaction: 5 μL of Development Solution (1:64 dilution) was added to each well and the plate was incubated at 37° C. in the dark for 1 h, then 5 μL of Stop Reagent was added.
The data analysis method is as follows:
Phosphorylation ratio=1−{(emission ratio×F100%−C100%)/[C0%−C100%+emission ratio×(F100%−F0%)]}×100;
Inhibition rate=100×(1−compound phosphorylation ratio/negative control phosphorylation ratio).
The IC50 values were calculated by GraphPad Prism software.

CCc1ccc2c(c1)c(=O)c(C(=O)Nc1ccc(Oc3ncnc4cc(OCCCN5CCOCC5)c(OC)cc34)c(F)c1)c(C)n2C [GDL5000123, 6-ethyl-N-(3-fluoro-4-((6-methoxy-7-(3-morpholinopropoxy)quinazolin-4-yl)oxy)phenyl)-1,2-dime thyl-4-oxo-1,4-dihydroquinoline-3-carboxamide, reference compound]
prototype drug metabolized, judging from the UV chromatographic peak areas [1]: ~27.2%
IC50 (Flt3 kinase): 10 nM

COc1cc2c(Oc3ccc(NC(=O)c4c(C)n(C)c5ccc(OC(F)(F)F)cc5c4=O)cc3F)ncnc2cc1OCCCN1CCOCC1 [TL-134, N-(3-fluoro-4-((6-methoxy-7-(3-morpholinopropoxy)quinazolin-4-yl)oxy)phenyl)-1,2-dim ethyl-4-oxo-6-(trifluoromethoxy)-1,4-dihydroquinoline-3-carboxamide]
prototype drug metabolized, judging from the UV chromatographic peak areas [1]: ~15.4%
IC50 (Flt3 kinase): 1.9 nM
